Measured values published in PubChem BioAssay (NCI).
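The compound was tested at five concentrations on cells cultured in 96-well plates, with a 48-hour exposure period. GI50 marks 50% less growth. TGI: concentration producing complete growth inhibition.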

Legend:
Assay in all cases: NCI-60 cell line screen, 48 h
K-562 leukemia = test system: K-562 leukemia
COLO 205 colon = test system: COLO 205 colon
NCI-H226 lung = test system: NCI-H226 lung
SN12C renal = test system: SN12C renal
UO-31 renal = test system: UO-31 renal
OVCAR-8 ovarian = test system: OVCAR-8 ovarian
LOX IMVI melanoma = test system: LOX IMVI melanoma
SR leukemia = test system: SR leukemia
PC-3 prostate = test system: PC-3 prostate
DU-145 prostate = test system: DU-145 prostate

SMILES	TGI (K-562 leukemia) [µM]	TGI (COLO 205 colon) [µM]	TGI (NCI-H226 lung) [µM]	TGI (SN12C renal) [µM]	TGI (UO-31 renal) [µM]	TGI (OVCAR-8 ovarian) [µM]	TGI (LOX IMVI melanoma) [µM]	TGI (SR leukemia) [µM]	TGI (PC-3 prostate) [µM]	TGI (DU-145 prostate) [µM]	GI50 (K-562 leukemia) [µM]	GI50 (COLO 205 colon) [µM]	GI50 (NCI-H226 lung) [µM]	GI50 (SN12C renal) [µM]	GI50 (UO-31 renal) [µM]	GI50 (OVCAR-8 ovarian) [µM]	GI50 (LOX IMVI melanoma) [µM]	GI50 (SR leukemia) [µM]	GI50 (PC-3 prostate) [µM]	GI50 (DU-145 prostate) [µM]
O=[N+]([O-])c1ccc2c(Nc3ccccc3-c3ccccc3Nc3c4ccccc4nc4cc([N+](=O)[O-])ccc34)c3ccccc3nc2c1	15.5	9.53	32.4	58.1	28.8	39.9	47.4	15.4	6.61	35.2										
O=C(Nc1cnc(C(F)(F)F)cn1)c1cc(Cl)ccc1O	> 100	3.14	23.9	52.4	1.16	61.8	1.75	2.19	> 100	> 100	0.272	1.54	0.322	0.326	0.196	0.365	0.291	0.347	0.311	0.348
O=c1cccc(C#CC#CCCCO)o1	> 100	7.87	32.5	16.7	> 100	> 35.8	> 27.9	2.37	> 22.8	5.86	4.08	2.94	13.8	5.21	2.17	4.33	2.51	0.158	3.13	2.37
CC1(C)CC2=C(Sc3ccccc3N2)C(=O)C1C(=O)C(=O)Nc1cc(Cl)ccc1Cl (stereo not given)	> 100	> 100	> 100	> 100	> 100	> 100	> 100	> 100	> 100	> 100										
CCOC(=O)C1=C(C)N2C(=NC3=C(CCC/C3=C\c3ccc(Cl)cc3)C2c2ccc(Cl)cc2)S1 (stereo not given)	11.8	4.65	8.8	21.6	3.85	31	3.15	3.95	> 100	17.6	3.45	2.44	3.04	3.55	1.7	3.24	1.75	1.65	2.77	3.92
O=C1c2ccccc2C(=O)N1C1(C(=O)NC2(C(=O)O)CCCC2)CCCC1	> 100	> 100	> 100	> 100	> 100	> 100	> 100	> 100	> 100	> 100										
Cc1cccc2c(Nc3ccc(NS(C)(=O)=O)cc3)c3ccc([N+](=O)[O-])cc3nc12	14	3.79	4.08	7.58	13	6.42	2.13	2.69	7.02	4.4	2.04	1.03	0.755	0.486	1.77	1.3	0.409	0.0598	1.49	0.253
Cc1oc2c(c1C(=O)N1CC[C@@H](N)C1)C(=O)c1c(c(O)c3ccccc3c1O)C2=O	9	1.97	22.6	11	2.44	4.65	3.96	3.48	10.9	15.5	1.86	0.643	1.52	1.3	0.421	1.25	1.1	0.224	1.98	1.06
C=C1CC[C@@H]2[C@](C)(COC(C)=O)[C@H](OC(C)=O)CC[C@@]2(C)[C@@H]1CC(Nc1ccc(S(=O)(=O)Nc2nccs2)cc1)C1=CCOC1=O (stereo not given in full)	29	10.5	5.37	4.39	16.1	10.8	3.31	> 100	21.5	15.8	3.6	3.14	2.36	1.87	4.07	3.14	1.59	1.33	7.74	4.47
Nc1n[nH]c(N)c1N=Nc1ccc(O)cc1	> 100	54.2	67.5	> 100	66.3	> 100	53.6	59.8	> 100	62.5	9.17	18.9	17.7	23.3	13.7	18	4.09	10.3	20.3	17
C=C1C(=O)O[C@H]2[C@H]1CC/C(CNC(=O)/C=C/c1ccccc1)=C\CC[C@@]1(C)O[C@@H]21	7.09	2.6	6.59	2.79	2.56	9.78	2.29	4.97	4.15	1.88	0.551	0.966	2.5	1.15	1.21	2.44	0.997	0.38	1.92	0.603
COc1ccc(Oc2ccccc2NC(=O)CNC(=O)c2cccc3ccccc23)cc1	> 25	2.04	> 25	> 25	> 25	> 25	> 25	> 25	> 25	> 25	0.143	0.64	4.3	2.3	1.49	1.15	1.34	0.166	1.06	1.02
NC(=O)c1cccc(-c2cc(C(N)=O)ccc2Cl)c1	> 100	> 100	> 100	88.3	> 100	> 100	> 100	18.3	40.9	> 100	0.36	3.21	13.4	4.85	4.61	4.32	4.84	0.389	3.03	3.78
COc1cc2c(c(OC)c1OC)-c1c(cc3c(c1OC)OCO3)CC(C)C(C)(O)C2OC(=O)c1ccccc1 (stereo not given)	> 100	53.5	> 100	> 100	87.3	> 100	> 100	55.9	> 100	> 100										
COc1cccc(C2C(C#N)=C(N)Oc3c2ccc2ccccc32)c1 (stereo not given)	> 44	0.639	1	13.5	14.3	19.2	10.8	> 66.7	15.5	1.43	< 0.01	0.132	0.0208	0.0406	0.054	0.0346	< 0.0164	< 0.01	0.0119	0.034
